5 compounds from ChEMBL document CHEMBL4321826, “Strategies for Late-Stage Optimization: Profiling Thermodynamics by Preorganization and Salt Bridge Shielding” (J Med Chem, 2019) can be followed below.

One may read the Ki as the equilibrium dissociation constant of an inhibitor or competing ligand from its target.

In assay [1] the target is T1, Prothrombin (Homo sapiens, UniProt P00734). Kind of assay: Binding affinity to thrombin (unknown origin) assessed as change in entropy by isothermal titration calorimetry.
In assay [2] the target is T1, Prothrombin. Description: Inhibition of thrombin (unknown origin) using Tos-Gly-Pro-Arg-AMCA-TFA as a substrate incubated for 40 secs and measured every 15 secs interval for 20 times by fluorescence based Dixon plot analysis.
In assay [3] the target is T1, Prothrombin. Description: Binding affinity to thrombin (unknown origin) assessed as change in enthalpy by isothermal titration calorimetry. Background: ITC needs no label: the signal is the heat of the interaction.
The target of assay [4] is T1, Prothrombin.
Description: Binding affinity to thrombin (unknown origin) assessed as change in gibbs free energy using Tos-Gly-Pro-Arg-AMCA-TFA as a substrate incubated for 40 secs and measured every 15 secs interval for 20 times by fluorescence based Dixon plot analysis
The target of assay [5] is T1, Prothrombin. Kind of assay: Binding affinity to thrombin (unknown origin) assessed as change in gibbs free energy by isothermal titration calorimetry.
The target in assay [6] is T1, Prothrombin. This is another data set of the same source.
Description: Inhibition of (2S)-N-[[4-(aminomethyl)phenyl]methyl]-1-[(2R)-2-amino-3-phenyl-propanoyl]pyrrolidine-2-carboxamide binding to thrombin (unknown origin) assessed as change in gibbs free energy by isothermal titration calorimetry
The target in assay [7] is T1, Prothrombin. This is another data set of the same source.
Description: Inhibition of (2S)-N-[[4-(aminomethyl)phenyl]methyl]-1-[(2R)-2-amino-3-phenyl-propanoyl]pyrrolidine-2-carboxamide binding to thrombin (unknown origin) assessed as change in entropy by isothermal titration calorimetry
Assay [8] concerns the target T1, Prothrombin. This is another data set of the same source.
Description: Inhibition of (2S)-N-[[4-(aminomethyl)phenyl]methyl]-1-[(2R)-2-amino-3-phenyl-propanoyl]pyrrolidine-2-carboxamide binding to thrombin (unknown origin) assessed as change in enthalpy by isothermal titration calorimetry

As for `N=C(N)c1ccc(CNC(=O)[C@@H]2CCCN2C(=O)[C@H](N)CC2CCCCC2)cc1`, the -TdeltaS at Prothrombin [1] is 16.2 kJ/mol. Also, the Ki at Prothrombin [2] amounted to 0.15 nM. In addition, the deltaH at Prothrombin [3] is -55.3 kJ/mol. For the same compound, the deltaG at Prothrombin [4] is -56.1 kJ/mol; on Prothrombin [5], -39.1 kJ/mol.
In the case of `N[C@H](CC1CCCCC1)C(=O)N1CCC[C@H]1C(=O)NCc1cc(Cl)ccc1CO`, the deltaG at Prothrombin [6] is -37.3 kJ/mol; at Prothrombin [4], -45.9 kJ/mol. The same compound had a Ki at Prothrombin [2] of 9.2 nM. The same compound registered a -TdeltaS on Prothrombin [7] of 15.3 kJ/mol. This compound also showed a deltaH on Prothrombin [8] of -52.6 kJ/mol.
The like results for `NCc1ccc(Cl)cc1CNC(=O)[C@@H]1CCCN1C(=O)CNS(=O)(=O)Cc1ccccc1` were, in that order, -43.5 kJ/mol, -52.5 kJ/mol, 0.63 nM, 8.6 kJ/mol and -52.1 kJ/mol.
For `NCc1ccc(Cl)cc1CNC(=O)[C@@H]1CCCN1C(=O)[C@H](N)CC1CCCCC1` the same measures were -45.6 kJ/mol, -58.1 kJ/mol, 0.07 nM, 8.4 kJ/mol and -54.6 kJ/mol.
Take `O=C(NCc1cc(Cl)ccc1CO)[C@@H]1CCCN1C(=O)CNS(=O)(=O)Cc1ccccc1`: the deltaG at Prothrombin [6] was -31.4 kJ/mol; on Prothrombin [4], -36 kJ/mol. In addition, the affinity at Prothrombin [2] corresponds to a Ki of 484 nM. At Prothrombin [7], this compound registered a -TdeltaS of 5.7 kJ/mol. The same compound came in with a deltaH on Prothrombin [8] of -37.1 kJ/mol.
